One test relates to HL60 cells. The test is described as follows: Time-of-flight (TOF) optophoretic testing of HL60 cells treated with DMSO. The test is classed as cell-based. As to conditions: 1% DMSO, after 40 hours of treatment, compared to non-treated HL60 cells (FIGS. 44 and 45). An excerpt:
The system includes multiple, preferably three, detecting positions, 31, 32 and 33. The detecting positions 31, 32, 33, may be associated with detection of times, e.g., t1, t2, t3. The times may be absolute, relative or elapsed. The two outermost detecting positions, i.e., 31 and 33 in this example, are separated by a distance L. A representative length L when detecting biological particles would be substantially 200 microns or less. The difference between the first two detecting positions t1, t2, define a time interval T1. T1 may also be associated with a first detection zone corresponding to the motion of the particle 36 through the zone T1. The second and third detecting positions t2, t3, define a second detection zone T2. The second detection zone also corresponds to the time difference between t2, t3. In one preferred embodiment, the distance between t2 t3 is equal to the distance between t1 t2. In operation, the cell or particle 36 flows from the inlet 22 through the channel 20 through the outlet 24. For biological detection purposes, representative particle speeds are from substantially 50 to substantially 200 microns per second. As the cell or particle 36 flows through the first detection zone T1, the time-of-flight through that zone is measured, that is the time it takes for the cell or particle 36 to move from position t1 to t2. An optical gradient 38 is disposed within zone T2. […]

A further test deals with T cells. The test is described as follows: Time-of-flight (TOF) optophoretic testing of activated and unactivated T cells. Format: cell-based. Conditions: T cells activated with 0.5 μml PMA and 50 ng/ml ionomycin together, overnight, compared to unstimulated T cells (FIG. 46). An excerpt:
The system includes multiple, preferably three, detecting positions, 31, 32 and 33. The detecting positions 31, 32, 33, may be associated with detection of times, e.g., t1, t2, t3. The times may be absolute, relative or elapsed. The two outermost detecting positions, i.e., 31 and 33 in this example, are separated by a distance L. A representative length L when detecting biological particles would be substantially 200 microns or less. The difference between the first two detecting positions t1, t2, define a time interval T1. T1 may also be associated with a first detection zone corresponding to the motion of the particle 36 through the zone T1. The second and third detecting positions t2, t3, define a second detection zone T2. The second detection zone also corresponds to the time difference between t2, t3. In one preferred embodiment, the distance between t2 t3 is equal to the distance between t1 t2.
In operation, the cell or particle 36 flows from the inlet 22 through the channel 20 through the outlet 24. For biological detection purposes, representative particle speeds are from substantially 50 to substantially 200 microns per second. As the cell or particle 36 flows through the first detection zone T1, the time-of-flight through that zone is measured, that is the time it takes for the cell or particle 36 to move from position t1 to t2. An optical gradient 38 is disposed within zone T2. […]

Consider `C[S+](C)[O-]` [DMSO, dimethyl sulfoxide], for which the “TOF ratio t2/t1” value in the test on HL60 cells is on record as “lower TOF ratio”.

In the case of `C[C@H](CCC(=O)O)C[C@H](C)C[C@H](C)C(=O)/C=C(\O)[C@H](C)C[C@H](C)C/C=C/[C@@H](C)[C@@H](O)[C@@H](C)[C@@H](O)C[C@@H]1CC[C@@](C)([C@H]2CC[C@@](C)([C@@H](C)O)O2)O1` [ionomycin], the “TOF ratio t2/t1” value in the test with T cells is recorded as “lower TOF ratio”.

Take `CCCCCCCCCCCCCC(=O)O[C@@H]1[C@@H](C)[C@@]2(O)[C@@H](C=C(CO)C[C@]3(O)C(=O)C(C)=C[C@@H]23)[C@@H]2C(C)(C)[C@]12OC(C)=O` [PMA, Phorbol mystirate acetate]: in the test on T cells, the “TOF ratio t2/t1” value is “lower TOF ratio”.

Source of the values: patent publication US20040067167A1, “Methods and apparatus for optophoretic diagnosis of cells and particles” (Genoptix, Inc., priority 2002, published 2004).
